Patent US9310660B2, “Organic compound and electrochromic element including the same” (CANON KABUSHIKI KAISHA, priority 2013, dated 2016)

Columns and labels:
[1] = Solubility in propylene carbonate; format: physicochemical; conditions: organic solvent or mixture
Procedure: The solubilities of three compounds: Compound A-1 prepared in Example 1, Compound B-1 prepared in Example 2, and pyridinium salt precursor Ref-1 of Compound A-1 as a comparative example, in propylene carbonate, a solvent for an EC element, were measured.
Compound Ref-1 as a comparative example has a structure in which the pyridinium salt moiety of Compound A-1 is replaced by a non-ionized structure, a pyridyl group. The molecular structure is shown below.

[2] = Ultraviolet and visible absorption spectrum in chloroform; format: physicochemical; conditions: dissolved in chloroform, neutralized state
Procedure: The resulting exemplified compound A-1 was dissolved in chloroform. The absorption spectrum of the solution was measured with an ultraviolet and visible spectrometer (V-560, manufactured by JASCO Corp.) and is shown in FIG. 2.
The resulting exemplified compound B-1 was dissolved in chloroform. The absorption spectrum of the solution was measured as in Example 1.

In the case of `Cc1cc(C)c(-c2cc3sc4cc(-c5cccc(-c6cc[n+](Cc7ccccc7)cc6)c5)sc4c3s2)c(C)c1` [Compound A-1], the solubility [1] is reported as ≥ 300 mM and the “maximum absorption peak λmax” value [2] is reported as 355.5 nm.

For `Cc1c(-c2cccc(-c3cc[n+](Cc4ccccc4)cc3)c2)sc(-c2cccc(-c3cc[n+](Cc4ccccc4)cc3)c2)c1C` [Compound B-1], the solubility [1] was ≥ 75 mM and the “maximum absorption peak λmax” value [2] was 311.5 nm.

In the case of `Cc1cc(C)c(-c2cc3sc4cc(-c5cccc(-c6ccncc6)c5)sc4c3s2)c(C)c1` [Ref-1, reference compound], the solubility [1] is reported as ≤ 8 mM.
